Measurements as given in patent EP1021178B1, “SELENOPHENE ANTI-TUMOR AGENTS” (Purdue Research Foundation, priority 1996, dated 1997).

Legend:
[1] = in vitro activity of glycoside prodrug (preliminary); details: preliminary results
[2] = in vivo activity of glycoside prodrug (preliminary); details: preliminary results

SMILES: OC[C@H]1O[C@@H](OCc2ccc(-c3ccc(-c4cccs4)s3)s2)[C@H](O)[C@@H](O)[C@@H]1O [β-D-glucoside of 2-hydroxymethyl-∝-terthiophene]
- in vitro activities [1]: retains
- in vivo activities [2]: retains
